Reference: the supplement of paper PMC10307832

Key:
Experiment in all cases: relative viability (nuclei count vs DMSO), 5 days (fraction); higher = more cells survive
RAF265 + Bortezomib = compound: Cn1c(Nc2ccc(C(F)(F)F)cc2)nc2cc(Oc3ccnc(-c4ncc(C(F)(F)F)[nH]4)c3)ccc21 [RAF265] + CC(C)C[C@H](NC(=O)[C@H](Cc1ccccc1)NC(=O)c1cnccn1)B(O)O [Bortezomib] (partner 0.002 µM)
Summary of the method: (§1)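 Nuclei were stained with Hoechst during a one-step fixation (final 0.05% Triton X-100, 1% formaldehyde, 1 ug/ml Hoechst) carried out 5 days after dosing, then counted on 4× images. The cells, lung cancer lines in 1536-well plates, had been dosed by pin tool the day after seeding with one drug alone or a fixed anchor-drug dose plus five library-drug doses (not always all listed) in √10 steps. Relative viability is the nuclei count in treated wells divided by that in vehicle wells, and each value is the median of duplicate plates.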

IPA-3 + Crizotinib = compound: C1=CC=C2C(=C1)C=CC(=C2SSC3=C(C=CC4=CC=CC=C43)O)O [IPA-3] + C[C@@H](Oc1cc(-c2cnn(C3CCNCC3)c2)cnc1N)c1c(Cl)ccc(F)c1Cl [Crizotinib] (partner 1 µM)
Summary of the method: as §1

IPA-3 + Phenformin = compound: C1=CC=C2C(=C1)C=CC(=C2SSC3=C(C=CC4=CC=CC=C43)O)O [IPA-3] + N=C(N)NC(=N)NCCc1ccccc1 [Phenformin] (partner 250 µM)
Summary of the method: as §1

Doramapimod + Dasatinib = compound: Cc1ccc(-n2nc(C(C)(C)C)cc2NC(=O)Nc2ccc(OCCN3CCOCC3)c3ccccc23)cc1 [Doramapimod] + Cc1nc(Nc2ncc(C(=O)Nc3c(C)cccc3Cl)s2)cc(N2CCN(CCO)CC2)n1 [Dasatinib] (partner 0.075 µM)
Summary of the method: as §1

Cell Line | relative viability (RAF265 + Bortezomib; first compound 0.01 µM) | relative viability (RAF265 + Bortezomib; first compound 0.03162 µM) | relative viability (RAF265 + Bortezomib; first compound 0.1 µM) | relative viability (RAF265 + Bortezomib; first compound 1 µM) | relative viability (IPA-3 + Crizotinib; first compound 0.2 µM) | relative viability (IPA-3 + Crizotinib; first compound 0.6325 µM) | relative viability (IPA-3 + Crizotinib; first compound 2 µM) | relative viability (IPA-3 + Crizotinib; first compound 6.325 µM) | relative viability (IPA-3 + Crizotinib; first compound 20 µM) | relative viability (IPA-3 + Phenformin; first compound 0.2 µM) | relative viability (IPA-3 + Phenformin; first compound 0.6325 µM) | relative viability (IPA-3 + Phenformin; first compound 2 µM) | relative viability (IPA-3 + Phenformin; first compound 6.325 µM) | relative viability (IPA-3 + Phenformin; first compound 20 µM) | relative viability (Doramapimod + Dasatinib; first compound 0.02 µM) | relative viability (Doramapimod + Dasatinib; first compound 0.06325 µM) | relative viability (Doramapimod + Dasatinib; first compound 0.2 µM) | relative viability (Doramapimod + Dasatinib; first compound 0.6325 µM) | relative viability (Doramapimod + Dasatinib; first compound 2 µM) | relative viability (RAF265 + Bortezomib; first compound 0.3162 µM)
HCC-827 | 1.1 | 1.08 | 1.08 | 0.869 | 0.927 | 0.89 | 0.865 | 0.873 | 0.859 | 0.383 | 0.379 | 0.396 | 0.441 | 0.457 | 0.272 | 0.238 | 0.286 | 0.355 | 0.142 | 
HOP-62 | 1.15 |  | 1.05 | 0.788 | 1.3 | 0.643 | 1.01 | 1.01 | 0.922 | 0.79 | 0.582 | 0.679 | 0.636 | 0.645 | 0.618 | 0.705 | 0.633 | 0.843 | 0.594 | 0.674
LC-2-ad | 0.959 | 0.998 | 0.927 | 0.452 | 0.499 | 0.523 | 0.419 | 0.477 | 0.488 | 0.605 | 0.566 | 0.556 | 0.595 | 0.666 | 0.464 | 0.514 | 0.638 | 0.561 | 0.391 | 0.668
LCLC-97TM1 | 0.253 | 0.671 | 0.492 | 0.238 | 0.439 | 0.355 | 0.448 | 0.315 | 0.343 | 0.449 | 0.447 | 0.407 | 0.315 | 0.46 | 0.837 | 0.87 | 0.768 | 0.699 | 0.591 | 0.181
LCLC-103H | 1.02 | 1.07 | 0.994 | 0.627 | 1.07 | 0.947 | 1.03 | 1.15 | 1.1 | 0.299 | 0.344 | 0.365 | 0.354 | 0.372 | 0.451 | 0.488 | 0.374 | 0.448 | 0.44 | 1
LOU-NH91 | 0.542 | 0.465 | 0.521 | 0.521 | 0.723 | 0.757 | 0.809 | 0.728 | 0.801 | 0.793 | 0.666 | 0.721 | 0.677 | 0.954 | 0.559 | 0.535 | 0.599 | 0.671 | 0.365 | 0.596
LU99A | 1.18 | 1.11 | 0.697 | 0.409 | 0.635 | 0.529 | 0.615 | 0.517 | 0.533 | 0.883 | 0.764 | 0.858 | 0.933 | 0.799 | 0.488 | 0.498 | 0.413 | 0.612 | 0.552 | 0.605
LXF-289 | 0.996 | 0.988 | 0.969 | 0.796 | 0.828 | 0.764 | 0.811 | 0.829 | 0.86 | 0.536 | 0.47 | 0.544 | 0.514 | 0.546 | 0.229 | 0.216 | 0.207 | 0.252 | 0.247 | 0.763
NCI-H23 | 1.21 | 0.937 | 0.606 | 0.353 | 0.488 | 0.376 | 0.599 | 0.545 | 0.654 | 0.819 | 0.781 | 0.855 | 0.773 | 0.734 | 0.734 | 0.709 | 0.856 | 0.836 | 0.759 | 0.621
NCI-H322M | 1.3 | 1.32 | 1.14 | 0.258 | 1.08 | 0.933 | 0.96 | 0.886 | 1.1 | 0.821 | 0.749 | 0.835 | 0.89 | 0.96 | 0.276 | 0.28 | 0.259 | 0.262 | 0.24 | 0.55
NCI-H441 | 0.446 |  | 0.499 | 0.207 | 0.859 | 0.635 | 0.804 | 0.659 | 0.723 | 1 | 0.715 | 0.838 | 0.742 | 0.513 | 0.413 | 0.506 | 0.544 |  | 0.425 | 0.362
NCI-H460 | 1.15 | 1.22 | 1.09 | 0.742 | 1.07 | 0.871 | 0.908 | 0.726 | 0.62 | 0.835 | 0.501 | 0.495 | 0.448 | 0.446 | 0.445 | 0.499 | 0.488 | 0.535 | 0.437 | 
NCI-H520 | 0.389 | 0.547 | 0.545 | 0.202 | 0.962 | 0.803 | 0.682 | 0.74 | 0.919 | 0.817 | 0.63 | 0.369 | 0.512 | 0.712 | 0.183 | 0.166 | 0.148 | 0.213 | 0.182 | 0.486
NCI-H596 | 1.18 | 0.987 | 1.08 | 0.743 | 1.08 | 0.597 | 1.08 | 1.1 | 1.24 | 0.906 | 0.829 | 0.668 | 0.817 | 0.787 | 0.524 | 0.643 | 0.538 | 0.738 | 0.52 | 0.85
NCI-H647 | 0.949 | 0.806 | 0.686 | 0.426 | 1.22 | 1.01 | 0.991 | 0.596 | 0.173 | 0.8 | 0.482 | 0.48 | 0.371 | 0.107 | 0.179 | 0.19 | 0.157 | 0.21 | 0.147 | 0.58
NCI-H650 | 0.836 | 0.781 | 0.793 | 0.32 | 0.824 | 0.548 | 0.627 | 0.802 | 0.909 | 0.492 | 0.511 | 0.457 | 0.463 | 0.451 | 0.517 | 0.535 | 0.571 | 0.586 | 0.431 | 0.539
NCI-H661 | 0.87 | 0.649 | 0.862 | 0.403 | 1.06 | 0.847 | 1.08 | 0.988 | 1.03 | 0.31 | 0.266 | 0.293 | 0.259 | 0.272 | 0.703 | 0.855 | 1.04 | 1.19 | 0.909 | 0.657
NCI-H727 | 0.855 | 0.783 | 0.908 | 0.456 | 0.937 | 0.765 | 0.818 | 0.699 | 0.792 | 0.591 | 0.556 | 0.641 | 0.498 | 0.504 | 0.352 | 0.341 | 0.283 | 0.353 | 0.388 | 0.796
NCI-H838 | 0.784 | 0.899 | 0.788 | 0.572 | 1.02 | 0.788 | 0.914 | 0.839 | 1.27 | 0.857 | 0.576 | 0.524 | 0.517 | 0.666 | 0.279 | 0.327 | 0.315 | 0.326 | 0.298 | 0.841
NCI-H1355 | 1.26 | 1.19 | 1.05 | 0.804 | 1.21 | 0.999 | 0.778 | 1.07 | 1.11 | 0.471 | 0.448 | 0.476 | 0.44 | 0.482 | 0.713 | 0.692 | 0.724 | 0.753 | 0.623 | 1.09
NCI-H1437 | 0.541 | 0.528 | 0.419 | 0.343 | 1.19 | 0.896 | 1.04 | 0.895 | 1.34 | 0.41 | 0.294 | 0.328 | 0.394 | 0.304 | 0.466 | 0.459 | 0.437 | 0.596 | 0.323 | 0.56
NCI-H1563 | 0.994 | 0.836 | 0.851 | 0.803 | 0.899 | 0.891 | 0.938 | 1.11 | 1.02 | 0.703 | 0.644 | 0.655 | 0.727 | 0.735 | 0.437 | 0.478 | 0.44 | 0.82 | 0.421 | 0.69
NCI-H1650 | 0.224 | 0.222 | 0.224 | 0.216 | 1.04 | 0.816 | 1.14 | 0.938 | 1.28 | 0.564 | 0.346 | 0.424 | 0.512 | 0.364 | 0.366 | 0.294 | 0.338 | 0.402 | 0.217 | 0.207
NCI-H1651 | 0.981 | 0.978 | 0.974 | 0.932 | 0.962 | 0.85 | 0.909 | 0.88 | 0.961 | 0.341 | 0.317 | 0.364 | 0.339 | 0.31 | 0.481 | 0.458 | 0.449 | 0.54 | 0.32 | 0.897
NCI-H1666 | 1.09 | 0.809 | 0.935 | 0.595 | 1.1 | 1.04 | 1.07 | 1.15 | 0.799 | 0.654 | 0.552 | 0.547 | 1.04 | 0.469 | 0.889 | 0.881 | 0.876 | 1.14 | 0.87 | 0.977
NCI-H1734 | 0.937 | 0.724 | 0.696 | 0.469 | 0.745 | 0.648 | 0.71 | 0.703 | 0.698 | 0.394 | 0.371 | 0.371 | 0.412 | 0.368 | 0.443 | 0.405 | 0.426 | 0.509 | 0.39 | 0.7
NCI-H1755 | 1.01 | 0.921 | 0.892 | 0.536 | 0.971 | 0.763 | 0.964 | 0.808 | 0.95 | 0.675 | 0.582 | 0.622 | 0.612 | 0.557 | 0.458 | 0.438 | 0.369 | 0.4 | 0.344 | 0.842
